Here are results for 16 molecules from ChEMBL document CHEMBL4261505, “Imidazoles as potential anticancer agents” (Medchemcomm, 2017).

The nature of experiment [1]: Antiproliferative activity against human WM3629 cells. It counts as functional.
Experiment [2] deals with T1, Cytochrome P450 26A1 (Homo sapiens, UniProt O43174).
T1 sequence (O43174 whole entry): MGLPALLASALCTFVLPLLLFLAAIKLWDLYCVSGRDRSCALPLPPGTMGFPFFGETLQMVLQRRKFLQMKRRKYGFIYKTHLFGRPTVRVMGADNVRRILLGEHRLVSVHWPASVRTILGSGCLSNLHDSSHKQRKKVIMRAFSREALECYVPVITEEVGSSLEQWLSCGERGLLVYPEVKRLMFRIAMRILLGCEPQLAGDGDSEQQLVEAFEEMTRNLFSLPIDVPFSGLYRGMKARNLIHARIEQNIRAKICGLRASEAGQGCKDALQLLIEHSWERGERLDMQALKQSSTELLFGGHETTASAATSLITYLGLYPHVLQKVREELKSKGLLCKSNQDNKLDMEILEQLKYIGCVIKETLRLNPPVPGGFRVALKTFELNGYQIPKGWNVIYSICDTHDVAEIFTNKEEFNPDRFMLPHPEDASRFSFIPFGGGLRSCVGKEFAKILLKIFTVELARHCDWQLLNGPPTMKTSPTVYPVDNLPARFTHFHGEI
Kind of experiment: Inhibition of CYP26A1 (unknown origin).

Experiment [3] relates to HCT-116. Briefly: Antiproliferative activity against human HCT116 cells. The format is functional, cell-based.
The test system of experiment [4] is MCF7. Briefly: Antiproliferative activity against human MCF7 cells. The format is functional, cell-based.
For experiment [5], the system named is HeLa. Briefly: Antiproliferative activity against human HeLa cells. The format is functional, cell-based.
Experiment [6] has as its system A549. Briefly: Antiproliferative activity against human A549 cells. The format is functional, cell-based.
The subject of experiment [7] is P388. Briefly: Antitumor activity against mouse P388 cells implanted in DBA/2J mouse assessed as increase in mouse life span at 200 mg/kg/day, po for 4 consecutive days relative to control. It counts as functional.
Experiment [8] concerns NUGC-3. Briefly: Antiproliferative activity against human NUGC3 cells after 72 hrs by MTT assay. The format is functional, cell-based. Particulars: NUGC-3, 72 h. Background: Tetrazolium assays rely on reduction of a dye to a coloured formazan, in cell work by metabolically active cells.
The test system of experiment [9] is Jurkat. Briefly: Antiproliferative activity against human Jurkat cells after 72 hrs by MTT assay. The format is functional, cell-based.
In experiment [10] the test system is MCF7. Briefly: Antiproliferative activity against human MCF7 cells after 72 hrs by MTT assay. As to conditions: MCF7, 72 h. It counts as functional, cell-based.
Experiment [11] concerns LS180. Kind of experiment: Antiproliferative activity against human LS180 cells after 72 hrs by MTT assay. The format is functional, cell-based. As to conditions: LS180, 72 h.
The subject of experiment [12] is HeLa. Briefly: Antiproliferative activity against human HeLa cells after 72 hrs by MTT assay. The format is functional, cell-based.
Experiment [13] relates to A-431. Kind of experiment: Antitumor activity against human A431 cells xenografted in athymic mouse assessed as tumor growth inhibition at 25 mg/kg relative to control. Particulars: read-out: TGI. The format is functional. (In general: In xenograft studies the graft and the host belong to different species.)
The subject of experiment [14] is P388. Briefly: Antitumor activity against mouse P388 cells implanted in DBA/2J mouse assessed as increase in mouse life span at 5 mg/kg, iv relative to control. The format is functional.

Bounds are passed on as bounds.

For the molecule `C[C@H](O)CNc1nccc(-n2ccnc2-c2cccc(NC(=O)c3ccc(Cl)c(C(F)(F)F)c3)c2)n1`, it took 0.62 µM to inhibit growth in experiment [1] by half (GI50).
Regarding `C[C@H](O)CNc1nccc(-n2ccnc2-c2cccc(NC(=O)Nc3ccc(Cl)c(Cl)c3)c2)n1`, it took 0.65 µM to inhibit growth in experiment [1] by half (GI50).
With `COC(=O)C(C)(C)C(c1ccc(Nc2ccc3ccccc3c2)cc1)n1ccnc1` (stereo unspecified), half-maximal inhibition in experiment [2] (IC50) was put at 0.03 µM.
As to `Cc1nc2cc(Cl)c(Cl)cc2n1C1CCCC1`, the values for the IC50 in experiment [3] and in experiment [4] were 3 µM and 40 µM, respectively.
For the molecule `C[S+]([O-])c1nc2cc(Cl)c(Cl)cc2n1C1CCCC1` (stereo unspecified), the IC50 in experiment [3] and in experiment [4] was 0.5 µM in each case.
Take `CS(=O)(=O)c1nc2cc(Cl)c(Cl)cc2n1C1CCCC1`: the 50% inhibitory concentration (IC50) in [3] and in experiment [4] was 0.6 µM throughout.
Consider `CCCCCCCn1c(CCCC)nc(Cl)c1-c1nc2ccccc2[nH]1`, for which the IC50 (usually the midpoint of a concentration-inhibition curve) in experiment [5] was 25.3 µM.
In the case of `COc1ccc(-c2sc3nc(-c4ccc(F)cc4)c(C(=O)c4cccnc4)n3c2-c2ccc(OC)cc2)cc1`, in experiment [6], the half-inhibitory concentration (IC50) amounted to 0.64 µM.
On to `Nc1nc(-c2cccs2)cn1-c1nc(-c2ccccc2)cs1`, for which the ILS (in general, the gain in survival time of treated over control animals, in per cent) at 200 mg/kg/day in [7] worked out at 75%. The molecule also registered an IC50 in experiment [8] of 0.05 µM.
Consider `O=C1CCCc2nc3c(c(-c4ncc[nH]4)c21)C(=O)c1ccccc1-3`, for which the IC16 in experiment [9] was 1.7 µM; in experiment [10] it was above 100 µM; in experiment [11], above 100 µM; in [12], above 100 µM. For the same molecule, the IC50 in experiment [9] is 70.9 µM; in experiment [10] it was above 100 µM; in [11] it was above 100 µM; in experiment [12], above 100 µM.
As for `CC1CC(=O)C2=C(C1)N(c1ccccc1)C1=C(C(=O)c3ccccc31)C2c1nc(Cl)c(Cl)[nH]1` (stereo unspecified), the IC16 in experiment [9] amounted to 1.7 µM; in [10], 13.6 µM; in experiment [11], 19.4 µM; in [12], 10.7 µM. In addition, the 50% inhibitory concentration (IC50) was 95.8 µM in experiment [9], 77.1 µM in [10], above 100 µM in experiment [11] and 59 µM in experiment [12].
For the molecule `CCCCc1nc(Cl)c(-c2nc3ccccc3[nH]2)n1Cc1cccc(C)c1`, the midpoint of inhibition in experiment [5], the IC50, lay at 30.2 µM.
Regarding `CC1CC(=O)C2=C(C1)NC1=C(C(=O)c3ccccc31)C2c1ncc([N+](=O)[O-])n1C` (stereo unspecified), the IC16 was 0.7 µM in [9], above 25 µM in experiment [10], 12.5 µM in [11] and 9.2 µM in experiment [12]. Moreover, the IC50 in experiment [9], in experiment [10], in experiment [11] and in [12] was above 25 µM each time.
For the molecule `COc1ccc(Cc2[nH]c(=N)n(C)c2Cc2ccc(O)cc2)cc1` [NAAMINE A], the inhibition in vivo at 25 mg/kg in [13] amounted to 85%.
Consider `CNC(=O)c1cc(Oc2ccc(NC(=O)Nc3ccc(Cl)c(C(F)(F)F)c3)cc2)ccn1` [SORAFENIB], for which growth in experiment [1] was halved (GI50) at 0.78 µM.
Turning to `CC[C@]1(O)C[C@@H]2CN(CCc3c([nH]c4ccccc34)[C@@](C(=O)OC)(c3cc4c(cc3OC)N(C)[C@H]3[C@@](O)(C(=O)OC)[C@H](OC(C)=O)[C@]5(CC)C=CCN6CC[C@]43[C@@H]65)C2)C1` [VINBLASTINE], the increase in life span (ILS) at 5 mg/kg in experiment [14] was 83%.
